Residue numbers refer to the chain shown, from its start. “Also recorded” adds a separate entry of the source.
Tests used:
F258A Slo2.1 channels = target: T1, F258A Slo2.1 channels (Homo sapiens, UniProt Q6UVM3, F258A); experiment: Activation of ISlo2.1 by NFA, two-electrode voltage clamp in oocytes; type: cell-based
T1 sequence (Q6UVM3 1-1135 F258A): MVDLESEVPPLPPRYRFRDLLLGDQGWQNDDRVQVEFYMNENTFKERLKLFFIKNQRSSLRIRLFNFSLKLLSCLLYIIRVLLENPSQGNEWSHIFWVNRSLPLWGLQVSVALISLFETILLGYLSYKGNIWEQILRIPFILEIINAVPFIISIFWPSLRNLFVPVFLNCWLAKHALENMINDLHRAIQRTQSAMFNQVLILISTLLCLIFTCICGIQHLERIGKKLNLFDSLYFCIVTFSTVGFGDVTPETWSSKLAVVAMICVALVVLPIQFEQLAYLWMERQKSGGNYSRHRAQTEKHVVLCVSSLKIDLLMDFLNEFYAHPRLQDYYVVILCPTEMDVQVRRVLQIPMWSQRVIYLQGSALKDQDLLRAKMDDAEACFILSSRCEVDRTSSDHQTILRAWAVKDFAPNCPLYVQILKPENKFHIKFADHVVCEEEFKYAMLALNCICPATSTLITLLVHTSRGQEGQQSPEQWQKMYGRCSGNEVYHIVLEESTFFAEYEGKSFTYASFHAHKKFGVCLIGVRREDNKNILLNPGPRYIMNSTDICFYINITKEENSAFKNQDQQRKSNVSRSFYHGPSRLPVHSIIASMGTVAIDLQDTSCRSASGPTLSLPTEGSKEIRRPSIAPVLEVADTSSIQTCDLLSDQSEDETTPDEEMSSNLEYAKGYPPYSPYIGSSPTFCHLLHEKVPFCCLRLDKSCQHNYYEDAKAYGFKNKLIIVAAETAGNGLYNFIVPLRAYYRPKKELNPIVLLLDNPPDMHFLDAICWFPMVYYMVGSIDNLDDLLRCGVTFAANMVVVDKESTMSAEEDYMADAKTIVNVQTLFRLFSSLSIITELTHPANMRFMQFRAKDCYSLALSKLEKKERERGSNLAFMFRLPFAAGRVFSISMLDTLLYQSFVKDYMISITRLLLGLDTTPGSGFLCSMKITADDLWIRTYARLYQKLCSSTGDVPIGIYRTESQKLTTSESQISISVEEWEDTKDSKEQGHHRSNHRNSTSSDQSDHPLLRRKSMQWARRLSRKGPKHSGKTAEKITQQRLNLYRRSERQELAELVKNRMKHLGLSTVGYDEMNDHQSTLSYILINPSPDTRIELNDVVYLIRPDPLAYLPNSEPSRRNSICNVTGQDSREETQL

WT Slo2.1 channels = target: T2, WT Slo2.1 channels (Homo sapiens, UniProt Q6UVM3); conditions: 1 mM NFA; ref Dai et al., 2010; cited from earlier work
T2 sequence (Q6UVM3 1-1135): T1 sequence (Q6UVM3 1-1135 F258A) with A258F

[1] = test system: endogenous currents present in uninjected oocytes; experiment: Effect of NFA on uninjected oocytes; type: cell-based, Xenopus laevis

Structure (SMILES): O=C(O)c1cccnc1Nc1cccc(C(F)(F)F)c1 [NFA, niflumic acid]
- EC50 (F258A Slo2.1 channels): 400 ± 50 µM
- Hill coefficient nH of NFA activation (F258A Slo2.1 channels; F258A): 1.2 ± 0.08
- effective valence z (WT Slo2.1 channels): 0.48 e
- midpoint of voltage dependence of channel activation (WT Slo2.1 channels): +95 mV
- effect on endogenous currents in uninjected oocytes ([1]; 1 mM NFA, I-Vt relationships): reduced
- effect on endogenous currents in uninjected oocytes ([1]; 6 mM NFA, I-Vt relationships): increased; also recorded: activated a relatively small endogenous current
- effect on endogenous currents in uninjected oocytes ([1]; NFA at concentrations up to 1 mM): slightly reduced

From publication PMC3813382 (The Journal of General Physiology, 2013)
